Experimental data published in US20260334464A1, “INCREASED PALATABILITY OF INSECTICIDAL INSECT BAITS” (BIO LOGIC CROP SCIENCE S.L., priority 2023, published 2026).

Experiments:
Assay type in all cases: in vivo
insects [1] = assay: Increase in palatability of baits, general statement; settings: for comparison of activity of D and L isomers: D-cycloserine, L-cycloserine or mixtures in any ratio; for effect on palatability of baits (in words): general statement
insects [2] = assay: Insecticidal efficacy / mortality of baits, general statement; settings: for time to elimination of the insects (delayed mortality): cycloserine exclusively as active ingredient in bait; for difference in kill or duration between D-, L-cycloserine and mixtures: more detailed trials
Method: On the other hand, in addition to the effect of increased palatability, the effect on mortality of compositions containing D-cycloserine, L-cycloserine and DL-cycloserine was investigated.
At this point, we encounter the unexpected situation, not observed in previous trials because it is not usual to determine death within a short time after exposure to the bait (e.g. from a few minutes to a maximum of 24 hours), that baits containing cycloserine exclusively as active ingredient (that is, in a conceptual simplification, water, sugar and cycloserine, or even water with cycloserine), both D-cycloserine and L-cycloserine or their mixtures in any ratio, present delayed mortality, reaching the elimination of the insects they have eaten in up to 7 days.

Blatta orientalis = assay: Insecticidal efficacy of bait; settings: according to our experience
From the text: (§1) Cockroaches: The cockroach test protocol, which can be performed at any location with usual temperature and humidity conditions and with field- or insectary-raised cockroaches, consists of collecting cockroaches that are deprived of food for 7 days; on the day of the test, 4 females and 4 males (or the desired number, for individual measurements, only one individual) are placed in boxes in which the bait is placed in a known quantity and the number of visits to the bait is counted every certain time, optionally the quantity ingested every hour or certain minutes is determined by differential weighing. In examples where mortality is considered, the number of individuals turned over per hour (or other defined time) is observed. The bait is removed and replaced with a standard bait-such as pelleted dog food and a water source, such as moistened cotton wool- and daily mortality is monitored for one week.

Blattella germanica = assay: Insecticidal efficacy of bait; settings: according to our experience
From the text: as §1

Periplaneta americana = assay: Insecticidal efficacy of bait; settings: according to our experience
From the text: as §1

Linepithema humile = assay: Insecticidal efficacy of bait; settings: according to our experience
Method: (§2) Ants: The tests are conducted in transparent plastic boxes covered on top with a mixture of ethanol and talcum powder (talcol) which prevents ants from fleeing. A drop of bait is placed on a holder, and the holder is placed with 10-30 ants and the behaviour of the ants is observed.
(§3) The number of ants eating bait is counted every minute until 10′ and every 5 minutes until 30′. The boxes with ants are kept with the sample, with a source of humidity and alternative food to observe mortality at 24 hours and 48 hours.

Lasius niger [3] = assay: Insecticidal efficacy of bait; settings: according to our experience
Method: as §2, §3

Bactrocera cucurbitae = assay: Insecticidal efficacy of bait; settings: according to our experience
Periplaneta america = assay: Test 2A: palatability in terms of grams ingested (Example 2); settings: cockroach test of Example 2
From the text: as §1
A similar test was performed with Periplaneta america, Blattella germanica and Blatta orientialis cockroaches, as detailed below for the first species. In this case, it was possible to evaluate the amount of bait ingested per individual, with the formulas of this example corresponding to those of Example 1, but replacing the 20% fructose in all of them by 20% commercial hazelnut cream, so that we have the formulations C.2.1, P.2.1, P.2.2, P.2.3 with that change only.

Bactrocera oleae = assay: Insecticidal efficacy of bait; settings: according to our experience
Anopheles gambiae = assay: Insecticidal efficacy of bait; settings: according to our experience
Method: (§4) Mosquitoes: Bait is added at 10% in water used by mosquitoes for drinking, placed in ordinary breeding nets, 10×10×10 cm^3, ad libitum.

Culex quinquefasciatus = assay: Insecticidal efficacy of bait; settings: according to our experience
Method: as §4

cockroach = assay: Transfer of lethal effect by cannibalism; settings: cockroach offered a cycloserine-treated cockroach
From the text: This circumstance, in addition to the use of cycloserine to increase the palatability of the baits, means that cycloserine can be used as an insecticide and also with an infrequent, or even unknown, particularity in pest control, i.e. the treated insects die in extraordinarily (relatively) long times of up to 7 days. This, which in principle may seem a disadvantage, is not so in certain cases, since it allows the ants to have more time to live functionally well, without external signs of intoxication that could warn other ants, and to transmit the bait by tropholaxy to the queen ant (or queen ants of the same anthill, when this is the case) and thus more effectively destroy the anthill. Similarly, the alertness (if any) of conspecifics to a dead cockroach near the bait is suppressed. […] Similarly, for long-term pest control, immediacy is not an insurmountable requirement, so it is also applicable in mosquito control to prevent disease transmission or pest control in agriculture.

Aedes aegypti = assay: Insecticidal efficacy of bait; settings: according to our experience
Method: as §4
(§5) In the case of mosquito tests, the bait is given ad libitum to 50 specimens in 10 cm×10 cm×10 cm^3 cloth cages, using cotton wool impregnated with the baits mentioned above, but with a sugar mix content of only 10%, the rest being compensated by adding more water to the formula, so that it is liquid enough to be absorbed by the mosquitoes.

Aedes albopictus = assay: Insecticidal efficacy of bait; settings: according to our experience
Method: as §4, §5

Culex pipiens = assay: Insecticidal efficacy of bait; settings: according to our experience
Method: as §4, §5

Simuliidae ssp. = assay: Insecticidal efficacy of bait; settings: according to our experience
Ceratitis capitata = assay: Insecticidal efficacy of bait; settings: according to our experience
Method: (§6) Flies: Bait is added at 10% in water used by the flies for drinking, placed in 10×10×10 cm^3 ordinary breeding nets, ad libitum.
(§7) Similarly, tests have been carried out with […] with house flies (Musca domestica) and with Mediterranean flies (Ceratitis capitata).

Musca domestica = assay: Insecticidal efficacy of bait; settings: according to our experience
Method: as §6, §7

Lasius niger [4] = assay: Palatability of imidacloprid ant bait (Example 3); settings: 0.01 wt. % imidacloprid in bait
Method: as §2, §3
To test the combination effect of cycloserine and/or phloxine with known insecticides used in baits, we used an ant bait-type composition and its equivalents of Example 1, but containing 0.01 wt. % of the insecticide imidacloprid. Serine was also tested in parallel instead of cycloserine.
The bait is offered to them, in boxes containing 10 Lasius niger ants each, for 3 hours, during which time palatability is observed.

ants = assay: Example 1 baits with serine, increase in palatability vs control (results not shown); settings: serine instead of cycloserine, or combinations
Method: as §2, §3
On the other hand (results not shown), when serine is used instead of cycloserine in the bait, an increase in palatability is also observed, although somewhat lower, around 1.5-1.7 times compared to the control, and when serine, cycloserine and phloxine B, or serine and phloxine B are combined, this increase is 1.7-1-8 times compared to the control, with no appreciable differences between these last two combinations.

SMILES: N[C@@H]1CONC1=O [D-cycloserine]
- comparison of activity of D and L isomers (insects [1]): we have not seen an activity of one isomer greater than the other
- time to elimination of the insects (delayed mortality) (insects [2]): up to 7 days
- difference in kill or duration between D-, L-cycloserine and mixtures (insects [2]): no significant difference in kill or duration

SMILES: N[C@H]1CONC1=O [L-cycloserine]
- comparison of activity of D and L isomers (insects [1]): we have not seen an activity of one isomer greater than the other
- time to elimination of the insects (delayed mortality) (insects [2]): up to 7 days
- difference in kill or duration between D-, L-cycloserine and mixtures (insects [2]): no significant difference in kill or duration

SMILES: N[C@@H]1CON=C1O [cycloserine]
- efficacy as an insecticide (Blatta orientalis): great efficacy
- efficacy as an insecticide (Blattella germanica): great efficacy
- efficacy as an insecticide (Periplaneta americana): great efficacy
- efficacy as an insecticide (Linepithema humile): great efficacy
- efficacy as an insecticide (Lasius niger [3]): great efficacy
- efficacy as an insecticide (Bactrocera cucurbitae): great efficacy
- effect on palatability (in words) (Periplaneta america): more pronounced
- comparison of activity of D and L isomers (insects [1]): activity we have observed to be the same
- effect on palatability of baits (in words) (insects [1]): shown to increase the palatability of baits
- efficacy as an insecticide (Bactrocera oleae): great efficacy
- efficacy as an insecticide (Anopheles gambiae): great efficacy
- efficacy as an insecticide (Culex quinquefasciatus): great efficacy
- transfer of lethal effect to another cockroach (cockroach): lethal effect of cycloserine on one cockroach is transferred to another cockroach
- efficacy as an insecticide (Aedes aegypti): great efficacy
- efficacy as an insecticide (Aedes albopictus): great efficacy
- efficacy as an insecticide (Culex pipiens): great efficacy
- efficacy as an insecticide (Simuliidae ssp.): great efficacy
- time to elimination of the insects (delayed mortality) (insects [2]): up to 7 days
- efficacy as an insecticide (Ceratitis capitata): great efficacy
- efficacy as an insecticide (Musca domestica): great efficacy

SMILES: O=[N+]([O-])NC1=NCCN1Cc1ccc(Cl)nc1 [imidacloprid]
- bait rejection (Lasius niger [4]): does not cause bait rejection

SMILES: O=C([O-])c1c(Cl)c(Cl)c(Cl)c(Cl)c1-c1c2cc(Br)c(=O)c(Br)c-2oc2c(Br)c([O-])c(Br)cc12.[Na+].[Na+] [phloxine B]
- effect on palatability of baits (in words) (insects [1]): shown to increase the palatability of baits

SMILES: N[C@@H](CO)C(=O)O [serine]
- effect on palatability (in words) (Periplaneta america): increases palatability, but to a lesser extent than cycloserine
- increase in palatability compared to the control (ants): 1.5-1.7 times
- effect on palatability of baits (in words) (insects [1]): shown to increase the palatability of baits
